Source: ChEMBL document CHEMBL3390834, “Development of second generation epigenetic agents” (Medchemcomm, 2012)
pKi: −log10 of the molar value.

Molecular target: Histone deacetylase 2 (Homo sapiens, UniProt Q92769)
Assay: Inhibition of recombinant human HDAC-2 expressed in baculovirus infected insect Sf9 cells using Fluor de Lys as substrate preincubated for 2 hrs followed by substrate addition measured after 10 mins by fluorescence assay

Histone deacetylase 2, sequence (Q92769 whole entry): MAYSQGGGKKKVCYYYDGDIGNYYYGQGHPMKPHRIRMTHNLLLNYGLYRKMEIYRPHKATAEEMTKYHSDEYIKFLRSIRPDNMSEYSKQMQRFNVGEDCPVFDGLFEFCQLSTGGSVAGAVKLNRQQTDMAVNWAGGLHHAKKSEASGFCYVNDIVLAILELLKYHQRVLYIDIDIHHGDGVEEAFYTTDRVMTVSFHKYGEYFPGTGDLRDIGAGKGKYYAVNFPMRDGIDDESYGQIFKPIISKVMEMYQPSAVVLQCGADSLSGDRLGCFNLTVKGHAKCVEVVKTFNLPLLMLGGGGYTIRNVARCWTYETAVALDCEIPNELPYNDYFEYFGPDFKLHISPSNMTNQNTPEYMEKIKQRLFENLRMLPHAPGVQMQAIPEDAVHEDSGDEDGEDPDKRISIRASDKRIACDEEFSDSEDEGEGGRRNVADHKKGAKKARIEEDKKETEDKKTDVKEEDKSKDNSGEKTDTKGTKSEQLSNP

pKi: 7.80
SMILES: CCCCc1nc2cc(/C=C/C(=O)NO)ccc2n1CCN(CC)CC [PRACINOSTAT]
